The values that follow come from BindingDB's records for doi:10.1016/j.bmc.2006.08.003 (Hokuriku University, 2006).

pIC50, pKi: −log10 of the molar value.

The target of this test is T1, Lysosomal acid glucosylceramidase (Homo sapiens, UniProt P04062).
T1 sequence (P04062 whole entry): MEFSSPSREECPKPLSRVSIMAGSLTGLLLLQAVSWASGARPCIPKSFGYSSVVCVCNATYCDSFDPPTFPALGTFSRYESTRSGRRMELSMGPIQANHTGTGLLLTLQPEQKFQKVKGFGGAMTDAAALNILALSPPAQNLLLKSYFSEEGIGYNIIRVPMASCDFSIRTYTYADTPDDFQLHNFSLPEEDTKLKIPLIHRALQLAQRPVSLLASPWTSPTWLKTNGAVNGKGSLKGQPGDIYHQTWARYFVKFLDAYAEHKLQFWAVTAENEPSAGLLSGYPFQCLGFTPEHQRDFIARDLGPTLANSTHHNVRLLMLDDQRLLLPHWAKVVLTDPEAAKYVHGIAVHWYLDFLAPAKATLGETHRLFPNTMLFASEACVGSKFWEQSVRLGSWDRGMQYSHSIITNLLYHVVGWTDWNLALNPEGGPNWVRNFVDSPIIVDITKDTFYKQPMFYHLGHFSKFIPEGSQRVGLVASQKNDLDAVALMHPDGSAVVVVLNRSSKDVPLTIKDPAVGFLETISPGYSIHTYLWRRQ
As to the kind of experiment: In Vitro Enzyme Inhibition. The following applies: pH 5.5; 37 °C.
Consider `C[C@H]1N[C@H](CO)[C@@H](O)[C@H](O)[C@H]1O` [(2R,3R,4R,5S,6R)-2-(hydroxymethyl)-6-methylpiperidine-3,4,5-triol], for which the pIC50 (usually the negative decadic logarithm of the IC50, by convention in mol/L) was 3.05.
Take `CN1C[C@H](O)[C@@H](O)[C@H](O)[C@H]1CO` [(2R,3R,4R,5S)-2-(hydroxymethyl)-1-methylpiperidine-3,4,5-triol]: the pIC50 was 3.82.
With `CCCCCCN1C[C@H](O)[C@@H](O)[C@H](O)[C@H]1CO` [(2R,3R,4R,5S)-1-hexyl-2-(hydroxymethyl)piperidine-3,4,5-triol], the pIC50 was 4.89 and the pKi (as a rule, the Ki on a negative log10 scale, so that one unit is a factor of ten) was 5.26.
Consider `CCCN1C[C@H](O)[C@@H](O)[C@H](O)[C@H]1CO` [(2R,3R,4R,5S)-2-(hydroxymethyl)-1-propylpiperidine-3,4,5-triol], for which the pIC50 was 3.15.
The compound `CCCC[C@H]1N[C@H](CO)[C@@H](O)[C@H](O)[C@H]1O` [(2R,3S,4R,5R,6R)-2-butyl-6-(hydroxymethyl)piperidine-3,4,5-triol] had a pKi of 3.96.
In turn, `CCCCCCCCN1C[C@H](O)[C@@H](O)[C@H](O)[C@H]1CO` [(2R,3R,4R,5S)-2-(hydroxymethyl)-1-octylpiperidine-3,4,5-triol] gave a pIC50 of 6.09 and a pKi of 6.38.
The like results for `CCCCCC[C@H]1N[C@H](CO)[C@@H](O)[C@H](O)[C@H]1O` [(2R,3S,4R,5R,6R)-2-hexyl-6-(hydroxymethyl)piperidine-3,4,5-triol] were, in that order, 5.38 and 5.64.
For `CCC[C@H]1N[C@H](CO)[C@@H](O)[C@H](O)[C@H]1O` [(2R,3R,4R,5S,6R)-2-(hydroxymethyl)-6-propylpiperidine-3,4,5-triol], the pIC50 was 3.40.
As to `CCCCCCCC[C@H]1N[C@H](CO)[C@@H](O)[C@H](O)[C@H]1O` [(2R,3R,4R,5S,6R)-2-(hydroxymethyl)-6-octylpiperidine-3,4,5-triol], the pIC50 is 6.30 and the pKi is 6.55.
The like results for `CCCCCCCCC[C@H]1N[C@H](CO)[C@@H](O)[C@H](O)[C@H]1O` [CN-DNJ] were, in that order, 6.57 and 6.70.
